Earlier results as cited in US20090239289A1, “Drain Foam Composition and Method of Using the Same” (priority 2008, published 2009).

For `CC(COc1ccc(Oc2ccccc2)cc1)Oc1ccccn1` (stereo not shown) [Nylar, 2-[1-methyl-2(4-phenoxyphenoxy)ethoxy]pyridine], the “residual when used outdoors” value is given as “about 30 days”.
